These results are taken from patent US20260176290A1, “INHIBITORS OF KRAS(G12D)” (Ranok Therapeutics (Hangzhou) Co. Ltd., priority 2022, published 2026).

Data set [1] in a line: in vivo. The note with it: male, CD-1, mouse, po.
Protocol: (§3) CD-1 mice were randomly assigned to 6 groups with 3 male mice in each compound group. […] Compounds were orally administered (PO) in a single dose to each mouse in its group. Blood samples were taken within 72 hours. Bioavailability (F %) was determined and by liquid chromatography-mass spectrometry (LC-MS/MS).
In data set [2] the target is T1, KRAS (G12D)/SOS1 (Homo sapiens, UniProt P01116, G12D).
T1 construct: purchased Cisbio 63ADK000CB17PEH
Nature of the data set: KRAS (G12D)/SOS1 homogeneous time-resolved fluorescence (HTRF) assay. The class given is binding. The note with it: absence of GTP, 4° C. for 3 hr. The protocol: 3-fold serial dilutions of each test compound were prepared ranging from 20 μM to 1.02 nM. The test compound was mixed and incubated with reaction components, incubated in a sealed plate at 4° C. for 3 hr and fluorescence was measured using a PerkinElmer Envision plate reader. […]

The subject of data set [3] is AGS gastric carcinoma cells [heterozygous G12D]. As to the kind of experiment: Cancer cell line proliferation (CellTiter-Glo), AGS. The class given is cell-based. The note with it: Homo sapiens, 72 hr, read-out: CTG(IC50), ABS-72 H(nM) AGS. As to the method: (§1) The following cancer cell lines were employed: AGS gastric carcinoma [heterozygous G12D] (ATCC, CRL-1739); A-427 lung carcinoma [heterozygous G12D] (ATCC, HTB-53); ASPC1 pancreatic adenocarcinoma [homozygous G12D] (ATCC, CRL-1682) and SW1990 pancreatic adenocarcinoma [homozygous G12D] (ATCC CRL-2172). Cell lines were cultured essentially according to ATCC recommendations.
(§2) AGS, A-427, ASPC1, SW1990, and GP2D cells were plated in 96-well tissue culture plates at 4,000 cells/well and incubated at 37° C./5% CO2 for 72 hr in 100 μl of media. 3-fold serial dilutions of each test compound were prepared ranging from 20 μM to 1.02 nM. Each cell line was then treated with test compounds at various concentrations with a final concentration of 0.5% DMSO/well, and then incubated at 37° C./5% CO2 for 72 hr. 100 μl of CellTiter-Glo® Reagent (Promega Corporation, Madison, WI) was added to each well and processed according manufacturer's protocol. Results were analyzed and IC50 5 values were calculated in GraphPad 7 software.
In general terms: Cellular ATP, detected with luciferase, serves as a proxy for viable cell number.

Data set [4] deals with A-427 lung carcinoma cells [heterozygous G12D]. Nature of the data set: Cancer cell line proliferation (CellTiter-Glo), A-427. The class given is cell-based. To be noted: Homo sapiens, A427 cells, 72 hr, read-out: CTG(IC50), ABS-72 H(nM) A427. The protocol: as §1, §2
The test system of data set [5] is ASPC1 pancreatic adenocarcinoma cells [homozygous G12D]. As to the kind of experiment: Cancer cell line proliferation (CellTiter-Glo), ASPC1. The class given is cell-based. To be noted: Homo sapiens, ASPC-1 cells, 72 hr, read-out: CTG(IC50), ABS-72 H(nM) ASPC-1. As to the method: as §1, §2
Data set [6] has as its system SW1990 pancreatic adenocarcinoma cells [homozygous G12D]. Nature of the data set: Cancer cell line proliferation (CellTiter-Glo), SW1990. The class given is cell-based. The note with it: Homo sapiens, 72 hr, read-out: CTG(IC50), ABS-72 H(nM) SW1990. The protocol: as §1, §2
A short description of data set [7]: Oral bioavailability in CD-1 mice. To be noted: male, CD-1, mouse, blood.
Protocol: as §3

Molecules are shown by their SMILES. Some results are limits rather than exact numbers.

T1 sequence (P01116 1-188 isoform P01116-2 G12D): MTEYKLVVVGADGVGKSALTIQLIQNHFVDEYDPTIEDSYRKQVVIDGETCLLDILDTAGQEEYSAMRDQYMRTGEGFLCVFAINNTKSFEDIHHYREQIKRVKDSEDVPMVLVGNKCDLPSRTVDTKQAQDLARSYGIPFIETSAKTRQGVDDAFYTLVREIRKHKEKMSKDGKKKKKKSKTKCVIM

The term bioavailability denotes the share of a dose that reaches the circulation, judged against a reference dose that is usually intravenous. With `C#Cc1c(F)ccc2cc(O)cc(-c3nc(OC)c4c(N5CC6CCC(C5)N6C(=O)OC(C)OC(C)=O)nc(OCC5(CN6CC7CC7C6)CC5)nc4c3F)c12` (stereo not drawn) [Example 146], in data set [1], the bioavailability was 8.3%.

`C#Cc1c(F)ccc2cc(O)cc(-c3ncc4c(N5CC6CCC(C5)N6)nc(OCC5(CN6CC7C(F)C7C6)CC5)nc4c3F)c12` (stereo not drawn) [Example 149] came in with a bioavailability in data set [1] of 12.9%.

With `C#Cc1c(F)ccc2cc(N)cc(-c3nc(OC)c4c(N5CC6CCC(C5)N6)nc(OCC5(CN6CC7CC7C6)CC5)nc4c3F)c12` (stereo not drawn) [Example 184], in data set [1], the bioavailability is 5.75%.

By IC50 is commonly meant the concentration at which inhibition is half-maximal. As to `C#Cc1c(F)ccc2cc(O)cc(-c3ncc4c(N5CC6CCC(C5)N6)nc(OCC5(CN6CC7C(C6)C7C(F)(F)F)CC5)nc4c3F)c12` (stereo not drawn) [Example 37], the IC50 is under 0.1 µM in data set [2]; under 100 nM in data set [3]; 100 to 1000 nM in data set [4]; under 100 nM in data set [5]; under 100 nM in data set [6]. In data set [7], this compound yielded a bioavailability of 10.6%.

In data set [1], `C#Cc1c(F)ccc2cc(O)cc(-c3nc(OC)c4c(N5CC6CCC(C5)N6)nc(OCC5(CN6CC7C(F)C7C6)CC5)nc4c3F)c12` (stereo not drawn) [Example 155] had a bioavailability of 8.03%.

In data set [1], `[2H]C([2H])([2H])Oc1nc(-c2cc(O)cc3ccc(F)c(C#C)c23)c(F)c2nc(OCC3(CN4CC5C(F)C5C4)CC3)nc(N3CC4CCC(C3)N4)c12` (stereo not drawn) [Example 167] yielded a bioavailability of 7.14%.

`COc1nc(-c2cc(N)cc(Cl)c2C(F)(F)F)c(F)c2nc(OCC3(CN4CC5CC5C4)CC3)nc(N3CC4CCC(C3)N4)c12` (stereo not drawn) [Example 165] registered a bioavailability in data set [1] of 13.8%.

For the compound `C#Cc1c(F)ccc2cc(O)cc(-c3ncc4c(N5CC6CCC(C5)N6)nc(OCC5(CN6CCC(C(F)(F)F)CC6)CC5)nc4c3F)c12` [Example 14], the IC50 in data set [2] was under 0.1 µM; in data set [3], under 100 nM; in data set [4] it was under 100 nM; in data set [5], under 100 nM; in data set [6] it was under 100 nM. Further, the bioavailability in data set [7] came out at 5.81%.

For `C#Cc1c(F)ccc2cc(O)cc(-c3nc(OC)c4c(N5CC6CCC(C5)N6C(=O)OCOC(=O)C(C)C)nc(OCC5(CN6CC7CC7C6)CC5)nc4c3F)c12` (stereo not drawn) [Example 148], the bioavailability in data set [1] is 6.8%.

On to `[2H]C([2H])([2H])Oc1nc(-c2cc(O)cc3ccc(F)c(C#C)c23)c(F)c2nc(OCC3(CN4CC5CC5C4)CC3)nc(N3CC4CCC(C3)N4)c12` (stereo not drawn) [Example 4], for which the IC50 in data set [2] was under 0.1 µM; in data set [3], under 100 nM; in data set [4], under 100 nM; in data set [5], under 100 nM; in data set [6] it was under 100 nM. In data set [7] (25 mg/kg), this compound came in with a bioavailability of 5.4%.

On to `C#Cc1cccc2cc(O)cc(-c3ncc4c(N5CC6CCC(C5)N6)nc(OCC5(CN6CC7C(C6)C7(F)F)CC5)nc4c3F)c12` (stereo not drawn) [Example 100], for which the bioavailability in data set [1] amounted to 1.7%.

In turn, `C#Cc1c(F)ccc2c(F)c(O)cc(-c3nc(OC)c4c(N5CC6CCC(C5)N6)nc(OCC5(CN6CC7CC7C6)CC5)nc4c3F)c12` (stereo not drawn) [Example 168] displayed a bioavailability in data set [1] of 13.6%.

In the case of `C#Cc1c(F)ccc2cc(O)cc(-c3ncc4c(N5CC6CCC(C5)N6)nc(OCC5(CN6CC7CC7C6)CC5)nc4c3F)c12` (stereo not drawn) [Example 13], the IC50 in data set [2] was under 0.1 µM; in data set [3] it was under 100 nM; in data set [4], under 100 nM; in data set [5] it was under 100 nM; in data set [6], under 100 nM. The bioavailability in data set [7] amounted to 1.98%.
